Reference: patent US20230329282A1, “Application of 1-Deoxynojirimycin in Feed for Improving Nutritional Value and Sensory Effect of Rabbit Meat Products” (priority 2023, published 2023)
Marks after values point to notes of the source that are not given here.

Assays:
Assay type in all cases: in vivo
[1] = test system: New Zealand white rabbits; experiment: Nutritional ingredients of muscle (moisture, crude protein, ether extract); conditions: 28 d
Source text: (§1) The single-factor completely randomized test design is adopted. 36 45-day-old healthy New Zealand white rabbits (male) with the average weight of (1.05±0.04) kg are selected and randomly divided into 3 groups, and each group has 12 replicates with 1 rabbit per replicate. A control group is fed with a basal diet, an L-DNJ group is fed with the basal diet+0.14 g/kg DNJ, and an H-DNJ group is fed with the basal diet+0.28 g/kg DNJ. The diet is uniformly mixed to be prepared into cylindrical particles with the diameter of 6 mm and the length of 1 cm. The preliminary trial period is 14 d, and the trial period is 28 d.
(§2) The rabbits are deprived of food (but not water) on the night of the end of the experiment, and after weighing in the next morning, 8 rabbits with similar weight are selected from each group and slaughtered. The longissimus dorsi muscles of the rabbits are collected, the pH values of the front, middle and back parts of the longissimus dorsi muscle are measured with a pH meter (Bante221, Shanghai Bante Instrument Co., Ltd.) having the function of automatic temperature compensation and then measured again after standing at room temperature for 24 h, and the pH decreased values of the muscle within 24 h are calculated. The pH value is the average value of the three readings. The meat color (L*, α*, b*) is measured with a TC-PIIG automatic color difference meter (Beijing Aoyike Photoelectric Instrument Co., Ltd.) on the muscle surface. The detection light source is D65 according to CIE laboratory standards, and the measurement area is 8 mm in diameter. The average value is obtained by making three measurements at each detection point.
The contents of moisture, crude protein and ether extract in the muscle are measured according to the method proposed by Zhang Liying (Zhang Liying. Feed analysis and feed quality inspection technology [M]. 4th Ed. Beijing: China Agricultural University Press, 2016).

[2] = test system: New Zealand white rabbits; experiment: Meat quality of rabbit longissimus dorsi (pH, meat color, drip loss, shear force) after DNJ-supplemented diet; conditions: 28 d; for Meat color Brightness L* / Meat color Redness a* / Meat color Yellowness b* / pH45min / pH24 h / pH24 h decreased: longissimus dorsi; for Drip loss: meat hung at 4° C. 24 h
Source text: as §1
Before the test, rabbit houses and cages are cleaned and disinfected, rabbits are immunized according to routine procedures, and the rabbit houses are naturally ventilated and illuminated. Each experimental rabbit is raised in a single cage and fed with a diet and water twice a day at fixed time (8:00 am and 17:00 pm), and is free to eat and drink.
as §2
About 20 g of meat sample is weighed (demoted as M1), hung with a thin thread, and covered with a plastic bag with the mouth sealed, enough space is left inside to accommodate oozy water drops, and the meat sample is hung in a 4° C. refrigerator for 24 h. After being taken out, the meat sample is weighed (denoted as M2) after the surface moisture is absorbed with absorbent paper. 3 parallel samples are measured for each rabbit, and the results are averaged. Drip loss=(M1−M2)/M1×100%.
Another meat sample is trimmed into a 1 cm×1 cm×2.5 cm meat strip, the shear force is measured in the direction perpendicular to the muscle fibers by a TMS-PRO texture analyzer (FTC Corporation, USA) for three times, and the results are averaged.

[3] = test system: New Zealand white rabbits; experiment: Growth performance (ADFI, ADG, FCR); conditions: 28 d trial
Source text: as §1
In the morning of the first day of the trial period and the second day after the trial, the experimental rabbits are weighed once on an empty stomach, and the average daily gain (ADG) of each rabbit is calculated. Leftovers are collected and weighed before feeding, and the average daily feed intake (ADFI) of each rabbit is calculated. The ratio of the average daily feed intake to the average daily gain is the feed conversion rate (FCR). The calculation formula is as follows: • ADG=(final weight−initial weight)/test days; • ADFI=total feed intake/test days; • FCR=ADFFADG.

[4] = test system: New Zealand white rabbits; experiment: Antioxidant indexes of rabbit meat (T-AOC, SOD, GSH-Px, MDA kits); conditions: 28 d, muscle homogenate
Source text: as §1
About 5 g of muscular tissue is rinsed in 0-4° C. precooled normal saline to remove blood, dried with filter paper, and then weighed. The muscle tissue and 0-4° C. precooled homogenate buffer are thoroughly mixed and homogenized in an ice water bath at a […] to prepare muscle tissue homogenate with the mass concentration of 10%. The homogenate buffer contains 0.01 mol/L sucrose, 0.14 mol/L NaCl, 0.01 mol/L Tris-HCl and 0.0001 mol/L Na2EDTA, with the pH value of 7.4. The total protein content and the malondialdehyde (MDA) content of the tissue suspension is detected with a kit by a colorimetric method. Before the activities of total antioxidant capacity (T-AOC) enzyme, superoxide dismutase (SOD) and glutathione peroxidase (GSH-Px) are measured, the homogenate suspension is centrifuged at 3000 r/min for 15 min, the superneant is taken, and the activities of the enzymes are measured with relevant kits. All the kits are from Nanjing Jiancheng Bioengineering Institute, and the operation method is shown in the instructions of kits.

[5] = H-DNJ: basal diet+0.28 g/kg DNJ
[6] = L-DNJ: basal diet+0.14 g/kg DNJ

OC[C@H]1NC[C@H](O)[C@@H](O)[C@@H]1O [DNJ, 1-deoxynojirimycin]
Nutritional ingredient of muscle: Crude protein (CP) [1, 5]: 22.18 | Nutritional ingredient of muscle: Ether extract (EE) [1, 5]: 0.60^c | Nutritional ingredient of muscle: Moisture [1, 5]: 75.20 | Nutritional ingredient of muscle: Crude protein (CP) [1, 6]: 22.09 | Nutritional ingredient of muscle: Ether extract (EE) [1, 6]: 2.50^b | Nutritional ingredient of muscle: Moisture [1, 6]: 75.93 | Shear force [2, 5]: 33.51 N/cm^2 | Meat color Brightness L* [2, 5]: 55.34^b | Meat color Redness a* [2, 5]: 1.71ª | Meat color Yellowness b* [2, 5]: 8.35 | pH45min [2, 5]: 6.77 | pH24 h [2, 5]: 5.89 | pH24 h decreased [2, 5]: 0.87 | Drip loss [2, 5]: 3.17% | Shear force [2, 6]: 32.86 N/cm^2 | Meat color Brightness L* [2, 6]: 55.82^ab | Meat color Redness a* [2, 6]: 1.56ª | Meat color Yellowness b* [2, 6]: 8.32 | pH45min [2, 6]: 6.62 | pH24 h [2, 6]: 5.87 | pH24 h decreased [2, 6]: 0.76 | Drip loss [2, 6]: 3.56% | Average daily feed intake (ADFI) [3, 5]: 140.46 | Average daily gain (ADG) [3, 5]: 32.66 g/day | Feed conversion rate (FCR) [3, 5]: 0.24 g/g | Average daily feed intake (ADFI) [3, 6]: 145.33 | Average daily gain (ADG) [3, 6]: 36.18 g/day | Feed conversion rate (FCR) [3, 6]: 0.25 g/g | GSH-Px of rabbit meat [4, 5]: 7.88ª U/mg prot | MDA of rabbit meat [4, 5]: 0.45 nmol/mg prot | SOD of rabbit meat [4, 5]: 25.91 U/mg prot | T-AOC of rabbit meat [4, 5]: 0.82ª U/mg prot | GSH-Px of rabbit meat [4, 6]: 6.36^b U/mg prot | MDA of rabbit meat [4, 6]: 0.41 nmol/mg prot | SOD of rabbit meat [4, 6]: 25.01 U/mg prot | T-AOC of rabbit meat [4, 6]: 0.78^ab U/mg prot
